Assay results as given in patent US20080317700A1 (priority 2006, published 2008).
Where two headings read alike, the source gives them in different places.

Assays:
green algae CD 1 Red [1] = experiment: organism not typed; format: cell-based
Description: (§1) After phototrophical propagation during the 5 days under cool fluorescence light (intensity 5000 lux), the average radii of inhibition zones were measured. Water soaked filter paper circles were used as controls. Experiments for each herbicide concentration were repeated 3 times.

[2] = test system: natural freshwater biofouling organisms (periphyton); experiment: Field trial: periphyton biofouling on coated tiles in artificial stream (chlorophyll extraction); conditions: for Extracted chl (periphyton chl biomass) per tile: 459S2 coating with 0.15 M herbicide on ceramic tiles, 10 days in flow channels, bare tiles 11.1±2.87, blank resin 9.35±1.07
Description: Field tests were conducted during July and August, 2006 at the University of Michigan Biological Station Experimental Stream Laboratory located near Douglas Lake, Pellston, Mich. Resin 459S2 containing 0.15 M of a designated herbicide was coated on terracotta ceramic tiles (3×6 inches) pretreated with silanes for improved adhesion and photocured by an H-bulb system obtained from Fusion Inc. The coating thickness was 12.5 μm (0.5 mil). Bare tiles and tiles coated with 459S2 containing no additive were used as controls. Nine tiles for each series were placed into separate flow channels with a constant water flow of 3 L min^−1 for each channel. Each flow channel utilized water pumped from the East Branch of the Maple River containing natural freshwater biofouling organisms. Each flow channel was covered with a mesh screen to reduce direct light exposure and to ensure more favorable growth conditions. Tiles were left in the flow channels for 10 days.
Chlorophyll (chl) biomass attached to the surface of each tile was determined after the tiles had been washed three times with tap water to remove mud and other loosely attached species. The coated surface of the tile was submerged into a plastic vessel containing 25 mL of 90/10 acetone/saturated aqueous MgCl2. The container itself was placed into an ultrasonic bath and the entire system was sonicated for 30 seconds to facilitate chl extraction. The UV-vis spectrum of each extract was measured on a Shimadzu diode-array spectrophotometer using a 1 cm quartz cell. The amount of chl was determined using the following equation:^29
where Aλ1-λ2 is the difference in absorbance at two designated wavelengths and l is the spectroscopic cell pathlength. Two independent field trials were conducted.

green algae CD 1 Red [3] = experiment: Liquid culture growth inhibition (optical density), green algae; format: cell-based; conditions: CD1 Red, BG-11 liquid medium, 1 mM herbicide, control 0.55
Description: (§2) Strains of green algae, cyanobacteria and E. Coli were used as test organisms. The green algae CD 1 Red and cyanobacteria Synechocystos 6803 were obtained from the collection of Prof. George Bullerjahn. Salt water strain of cyanobacteria Synechococcus 7002 was obtained from the collection of Prof. Michael McKay. E Coli DH 5α was obtained from Invitrogen Inc.
(§3) Green algae and cyanobacteria were propagated photoautotrophically in 250 mL Erlenmeyer flasks containing 100 mL of liquid BG-11 culture medium (see Supporting Information). The cultures were kept on a rotating shaker (100 rpm) at 25° C. for 4 days and continuously illuminated with cool-white fluorescent light with a constant light intensity of 5000 lux. The grown culture medium was sterilized in an autoclave at 121° C. and 1.05 kg cm^−2 pressure for 20 min. For the cell experiments, 20 mL aliquots of the BG-11 medium containing the green algal ([cells]initial=5.9×10^7 mL^−1) or cyanobacteria cells ([cells]initial=1.7×10^9 mL^−1) were placed in sterile 50 mL Erlenmeyer flasks. […] Cell counts were correlated with the absorbance and measured as a function of time using a Spectronic 20 Genesis spectrophotometer. […] In each experiment, the inhibition of cell growth in treated cultures was monitored spectrophotometrically and compared to the growth in control samples.

[4] = test system: cyanobacteria Synechococcus 7002; experiment: microbe, parasite or virus in culture; format: cell-based
Description: as §1

[5] = test system: cyanobacteria Synechocystos 6803; experiment: Liquid culture growth inhibition (optical density), fresh water cyanobacteria; format: cell-based; conditions: Synechocystos 6803, BG-11 liquid medium, 1 mM herbicide, control 1.4
Description: as §2, §3

[6] = test system: cyanobacteria Synechococcus 7002; experiment: Liquid culture growth inhibition (optical density), salt water cyanobacteria; format: cell-based; conditions: Synechococcus 7002, BG-11 liquid medium, 1 mM herbicide, 7 days; control 0.72
Description: as §2
Green algae and cyanobacteria were propagated photoautotrophically in 250 mL Erlenmeyer flasks containing 100 mL of liquid BG-11 culture medium (see Supporting Information). The cultures were kept on a rotating shaker (100 rpm) at 25° C. for 4 days and continuously illuminated with cool-white fluorescent light with a constant light intensity of 5000 lux. The grown culture medium was sterilized in an autoclave at 121° C. and 1.05 kg cm^−2 pressure for 20 min. For the cell experiments, 20 mL aliquots of the BG-11 medium containing the green algal ([cells]initial=5.9×10^7 mL^−1) or cyanobacteria cells ([cells]initial=1.7×10^9 mL^−1) were placed in sterile 50 mL Erlenmeyer flasks. CD 1 Red, Synechocystos 6803 and Synechococcus 7002 were then treated with an aliquot of a stock herbicide solution to bring the final herbicide concentration to 1 mM and incubated for 7 days on a rotator shaker (100 rpm) at 25° C. and continuous light intensity of 5000 lux. Cell counts were correlated with the absorbance and measured as a function of time using a Spectronic 20 Genesis spectrophotometer. As previously reported by Ma et al., 5 the optimal wavelength for monitoring culture growth is 680 nm. Experiments for each herbicide were repeated three times. Control and treated cultures were grown under the same conditions of temperature, photoperiod, and agitation. In each experiment, the inhibition of cell growth in treated cultures was monitored spectrophotometrically and compared to the growth in control samples.

[7] = test system: Phaeodactylum tricornutum; experiment: Inhibition zones around polymer pellets, diatom Phaeodactylum; format: cell-based; conditions: Phaeodactilum, pellet without herbicide 0
Description: (§4) Rectangular copolymer pellets (15×10×1.5 mm) were formed from a model acrylic resin (designated as 459S2) containing several epoxy acrylic oligomers (57%), acrylic monomeric diluents (43%) and a corresponding amount of herbicide. A designated quantity of herbicide was dispersed or partially dissolved in 459S2 resin using ultrasonication and heat (60° C., overnight). To each sample, 1.5% wt. of commercial photoinitiator (ITX), 5% of ODAB synergist and 0.1% co-photoinitiator (Irgacure 819) were added. Liquid formulations were poured into an open top Teflon mold and irradiated under N2 by a 395 nm LED light source for 5 min followed by pellet removal.
(§5) Two different diatom cultures, Phaeodactylum tricornutum and Navicula pelliculosa were used in the biological activity tests. […] Following propagation over 5 days under continuous cool fluorescent light (5000 lx), the average radii of inhibition zones were measured. Experiments for each herbicide concentration were repeated at least two times.

Navicula pelliculosa = experiment: Inhibition zones around polymer pellets, diatom Navicula; format: cell-based; conditions: pellet without herbicide 10 ± 1
Description: as §4, §5

E. Coli = E. Coli agar experiments (colony count); format: cell-based; conditions: M9 agar, 1 mM herbicide, 37° C., 24 hours; controls 36 colonies
Description: A M9 minimum medium containing 1.5 wt. % agar was prepared and sterilized at 121° C., 1.05 kg cm^−2 for 20 min. An aliquot of each tested herbicide solution was added to portions of the autoclaved agar to give a 1 mM final concentration of the herbicide. Twenty mL of the liquid agar was poured into a standard Petri dish and allowed to harden at room temperature. E. Coli cell suspensions were inoculated using a sterile inoculation loop and stored at 37° C. for 24 hours. Control and treated cultures were grown under the same conditions. In each experiment, the inhibition of growth in treated cultures was monitored relative to growth in control samples by manually counting the number of colonies.

[8] = CD1 Red, herbicide concentration 0.3 mM, 5 days
[9] = CD1 Red, herbicide concentration 3 mM, 5 days
[10] = Syn. 7002, herbicide concentration 0.3 mM, 5 days
[11] = Synechococcus, 120 h, read-out: Average radii of the inhibition zones
[12] = herbicide 0.1 M in 459S2 polymer pellet
[13] = herbicide 0.3 M in 459S2 polymer pellet
[14] = herbicide 0.15 M in 459S2 polymer pellet

Compound | Average radii of the inhibition zones (green algae CD 1 Red [1]; [8]) | Average radii of the inhibition zones (green algae CD 1 Red [1]; [9]) | Extracted chl (periphyton chl biomass) per tile [2] [μg tile^−1] | Optical Density at 680 nm after 7 days of media growth (green algae CD 1 Red [3]) | Average radii of the inhibition zones [4, 10] | Optical Density at 680 nm after 7 days of media growth [5] | Optical Density at 680 nm after 7 days of media growth [6] | Diameter of Inhibition Zone (Bleaching indicates no growth detected on 100 mm plate) [7, 12] [mm] | Diameter of Inhibition Zone (Bleaching indicates no growth detected on 100 mm plate) [7, 13] | Diameter of Inhibition Zone (Bleaching indicates no growth detected on 100 mm plate) (Navicula pelliculosa; [14]) [mm] | Diameter of Inhibition Zone (Bleaching indicates no growth detected on 100 mm plate) (Navicula pelliculosa; [13]) | Number of E. Coli colonies (E. Coli) [colonies] | further results
C=CC(=O)N(CC(=O)O)CP(=O)(O)O [AA, N-Acryloyl-N-(phosphonomethyl)glycine] | No | No | 7.92±1.12 | 0.02 | No | 0.54 | 0.07 | 23 ± 2 | Bleaching | 20 ± 2 | Bleaching | 6 | zone of inhibition at 300000 µM (green algae CD 1 Red [1]; 120 h, read-out: Average radii of the inhibition zones): 10 mm; Average radii of the inhibition zones (green algae CD 1 Red [1]; CD1 Red, herbicide concentration 30 mM, 5 days): No; Periphyton chl relative to tiles containing unfunctionalized glyphosate ([2]; 459S2 coating with 0.15 M herbicide, 10 days, unpaired two-tailed t-test, P<0.05): roughly one-third; Average radii of the inhibition zones ([4]; Syn. 7002, herbicide concentration 3 mM, 5 days): No; zone of inhibition at 30000 µM [4, 11]: 6.5 mm; zone of inhibition at 300000 µM [4, 11]: 15 mm
O=C(O)CNCP(=O)(O)O [Glyphosate, N-(Phosphonomethyl)glycine, reference compound] | No | No | 11.9±2.56 | 0.02 | No | 0.58 | 0.04 | 17.5 ± 2 | Bleaching | 22.5 ± 2 | Bleaching | 11 | zone of inhibition at 30000 µM (green algae CD 1 Red [1]; 120 h, CD1 Red, herbicide concentration 30 mM, 5 days, read-out: Average radii of the inhibition zones): 7.5 mm; Average radii of the inhibition zones (green algae CD 1 Red [1]; CD1 Red, herbicide concentration 300 mM, 5 days): Complete; Average radii of the inhibition zones ([4]; Syn. 7002, herbicide concentration 300 mM, 5 days): Complete; zone of inhibition at 3000 µM ([4]; Synechococcus, 120 h, Syn. 7002, herbicide concentration 3 mM, 5 days, read-out: Average radii of the inhibition zones): 6 mm; zone of inhibition at 30000 µM ([4]; Synechococcus, 120 h, Syn. 7002, herbicide concentration 30 mM, 5 days, read-out: Average radii of the inhibition zones): 8 mm
